Drawing on patent publication US20250214991A1 (Oncopia Therapeutics, Inc. d/b/a/ SK Life Science Labs, priority 2022, published 2025), this text covers IC50, DC50 and Dmax for 15 compounds.

For one test, the target named is CRBN/DDB1 (Homo sapiens (Human), UniProt Q96SW2). Briefly: IC50 measurements for binding to CRBN/DDB1 (HTRF). As to conditions: His tagged CRBN+DDB, Cy5-labeled Thalidomide probe, one hour. The method in brief: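 Serially diluted compounds compete with a Cy5-labeled thalidomide tracer (60 nM) for His-tagged CRBN-DDB1 (2 nM), detected via anti-6His Tb cryptate (0.4 nM); buffer HEPES pH 7.5 with TCEP, Brij-35, NaCl, BSA. One-hour room-temperature incubation, HTRF signal read, IC50 by four-parameter curve.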
A general note: TR-FRET usually uses a lanthanide donor and a delayed reading to cut background.

The target in a further test is IKZF2 (Homo sapiens (Human), UniProt Q96SW2+Q9UKS7). The test can be described thus: In vitro IKZF2 HiBit Assay (HEK293T Flp-in-HiBiT cells). It counts as cell-based. To be noted: HEK293T Flp-in-HiBiT cells, 6 hrs incubation; for DC50: read-out: IKZF2 HiBit DC50; for Dmax: HEK-293T, read-out: IKZF2 HiBit Dmax (%). Put shortly: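 Remaining tagged Helios was read as lytic HiBiT/LgBiT luminescence normalized to DMSO, yielding binned DC50 and Dmax values. Treatment ran 6 h, with compounds at 11 three-fold doses diluted from 1 mM and 0.1% final DMSO. The cells were HEK293T Flp-in with CRISPR knock-in of HiBiT at the IKZF2 N-terminus.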
(In general: HiBiT is a short tag that completes a luciferase, so light tracks the accessible tagged protein.)

The target in another test is IKZF1 (Homo sapiens (Human), UniProt Q13422+Q96SW2). The test can be described thus: In vitro IKZF1 HiBit Assay (HEK293T Flp-in-HiBiT-IKZF1 stable cell line). It counts as cell-based. As to conditions: HEK293T Flp-in-HiBiT-IKZF1 stable cell line, 6 hrs incubation; for DC50: read-out: IKZF1 HiBit DC50; for Dmax: HEK-293T, read-out: IKZF1 HiBit Dmax (%). Put shortly: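 Degradation was measured as loss of luminescence from the HiBiT-IKZF1 tag after 6 h compound treatment, with 0.1% final DMSO, in stable HEK293T Flp-in cells. Values were normalized to DMSO, giving the 50% degradation concentration and the maximal degradation range.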

Structures are written as SMILES.

IKZF1, sequence (Q13422 whole entry): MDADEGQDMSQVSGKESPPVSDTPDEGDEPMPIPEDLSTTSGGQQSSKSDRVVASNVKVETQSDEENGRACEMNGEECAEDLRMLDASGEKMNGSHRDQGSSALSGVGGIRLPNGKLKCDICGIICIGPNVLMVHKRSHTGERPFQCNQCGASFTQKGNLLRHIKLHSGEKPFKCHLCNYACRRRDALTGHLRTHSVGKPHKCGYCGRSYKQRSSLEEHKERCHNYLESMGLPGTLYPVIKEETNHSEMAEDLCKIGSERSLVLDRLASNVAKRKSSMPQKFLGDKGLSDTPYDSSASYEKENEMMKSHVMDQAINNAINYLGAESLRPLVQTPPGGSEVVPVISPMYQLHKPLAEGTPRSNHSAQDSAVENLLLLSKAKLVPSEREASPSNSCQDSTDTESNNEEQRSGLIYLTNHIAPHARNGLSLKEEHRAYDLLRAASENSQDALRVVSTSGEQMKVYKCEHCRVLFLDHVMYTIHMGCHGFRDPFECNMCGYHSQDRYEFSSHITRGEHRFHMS
IKZF1, sequence (Q96SW2 whole entry): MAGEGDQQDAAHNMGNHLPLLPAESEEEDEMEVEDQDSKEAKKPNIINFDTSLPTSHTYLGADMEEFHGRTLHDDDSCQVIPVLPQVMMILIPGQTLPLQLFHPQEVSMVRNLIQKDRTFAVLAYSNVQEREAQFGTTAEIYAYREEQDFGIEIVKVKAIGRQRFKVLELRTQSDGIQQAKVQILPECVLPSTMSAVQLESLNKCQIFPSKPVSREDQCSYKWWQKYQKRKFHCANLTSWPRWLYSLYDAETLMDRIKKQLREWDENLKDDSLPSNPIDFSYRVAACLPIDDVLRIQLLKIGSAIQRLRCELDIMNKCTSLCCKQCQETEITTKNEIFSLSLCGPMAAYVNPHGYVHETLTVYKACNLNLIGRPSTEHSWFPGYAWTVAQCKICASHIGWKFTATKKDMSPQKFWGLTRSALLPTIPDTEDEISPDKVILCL
IKZF1, sequence (Q16531 2-1140 partner): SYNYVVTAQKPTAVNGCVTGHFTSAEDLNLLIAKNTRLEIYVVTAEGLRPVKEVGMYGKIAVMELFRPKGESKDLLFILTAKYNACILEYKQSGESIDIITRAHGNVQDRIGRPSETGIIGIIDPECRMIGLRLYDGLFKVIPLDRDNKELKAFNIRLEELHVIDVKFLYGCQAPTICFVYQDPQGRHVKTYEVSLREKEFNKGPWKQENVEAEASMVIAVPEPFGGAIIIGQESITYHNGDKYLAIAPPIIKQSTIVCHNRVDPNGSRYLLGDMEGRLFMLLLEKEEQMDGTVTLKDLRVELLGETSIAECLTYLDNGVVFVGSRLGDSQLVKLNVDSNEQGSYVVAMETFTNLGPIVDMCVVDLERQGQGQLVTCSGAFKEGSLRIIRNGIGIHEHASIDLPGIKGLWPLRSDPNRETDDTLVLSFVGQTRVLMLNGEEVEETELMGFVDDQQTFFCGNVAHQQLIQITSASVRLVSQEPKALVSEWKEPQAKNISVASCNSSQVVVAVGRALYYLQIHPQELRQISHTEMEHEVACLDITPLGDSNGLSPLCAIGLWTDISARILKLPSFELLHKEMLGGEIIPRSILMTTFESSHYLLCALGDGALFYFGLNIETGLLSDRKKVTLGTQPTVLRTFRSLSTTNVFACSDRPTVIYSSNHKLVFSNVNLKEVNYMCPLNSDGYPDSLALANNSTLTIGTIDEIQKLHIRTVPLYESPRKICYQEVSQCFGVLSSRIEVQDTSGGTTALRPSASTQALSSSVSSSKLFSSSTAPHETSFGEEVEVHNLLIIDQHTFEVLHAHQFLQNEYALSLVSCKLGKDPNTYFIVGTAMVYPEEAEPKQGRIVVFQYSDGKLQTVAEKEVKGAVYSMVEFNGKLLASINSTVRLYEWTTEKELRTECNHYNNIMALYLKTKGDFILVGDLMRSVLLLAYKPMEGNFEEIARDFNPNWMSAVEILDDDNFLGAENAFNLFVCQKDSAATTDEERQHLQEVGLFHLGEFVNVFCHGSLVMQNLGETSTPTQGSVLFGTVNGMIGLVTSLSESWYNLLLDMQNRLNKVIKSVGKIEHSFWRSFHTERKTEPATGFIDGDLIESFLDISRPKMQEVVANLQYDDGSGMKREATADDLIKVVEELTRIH
IKZF2, sequence (Q9UKS7 whole entry): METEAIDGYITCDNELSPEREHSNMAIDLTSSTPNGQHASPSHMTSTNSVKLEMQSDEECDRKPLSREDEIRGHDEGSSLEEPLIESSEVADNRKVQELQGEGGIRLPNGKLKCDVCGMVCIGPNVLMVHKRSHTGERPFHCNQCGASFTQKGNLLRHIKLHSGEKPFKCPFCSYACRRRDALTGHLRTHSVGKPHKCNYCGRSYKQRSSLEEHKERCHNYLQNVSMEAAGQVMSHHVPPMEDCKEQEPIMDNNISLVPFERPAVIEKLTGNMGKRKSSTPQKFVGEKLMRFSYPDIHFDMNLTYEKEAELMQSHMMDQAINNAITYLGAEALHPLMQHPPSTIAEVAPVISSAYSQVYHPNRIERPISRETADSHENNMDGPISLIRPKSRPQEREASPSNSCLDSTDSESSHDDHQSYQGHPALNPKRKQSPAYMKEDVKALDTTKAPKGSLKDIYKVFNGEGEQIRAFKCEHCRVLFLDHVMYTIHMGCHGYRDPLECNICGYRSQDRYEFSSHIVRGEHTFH
IKZF2, sequence (Q96SW2 whole entry): as the sequence (Q96SW2 whole entry) above
IKZF2, sequence (Q16531 2-1140 partner): as the sequence (Q16531 2-1140 partner) above
CRBN/DDB1, sequence (Q96SW2 whole entry, species assumed): as the sequence (Q96SW2 whole entry) above
CRBN/DDB1, sequence (Q16531 whole entry partner, species assumed): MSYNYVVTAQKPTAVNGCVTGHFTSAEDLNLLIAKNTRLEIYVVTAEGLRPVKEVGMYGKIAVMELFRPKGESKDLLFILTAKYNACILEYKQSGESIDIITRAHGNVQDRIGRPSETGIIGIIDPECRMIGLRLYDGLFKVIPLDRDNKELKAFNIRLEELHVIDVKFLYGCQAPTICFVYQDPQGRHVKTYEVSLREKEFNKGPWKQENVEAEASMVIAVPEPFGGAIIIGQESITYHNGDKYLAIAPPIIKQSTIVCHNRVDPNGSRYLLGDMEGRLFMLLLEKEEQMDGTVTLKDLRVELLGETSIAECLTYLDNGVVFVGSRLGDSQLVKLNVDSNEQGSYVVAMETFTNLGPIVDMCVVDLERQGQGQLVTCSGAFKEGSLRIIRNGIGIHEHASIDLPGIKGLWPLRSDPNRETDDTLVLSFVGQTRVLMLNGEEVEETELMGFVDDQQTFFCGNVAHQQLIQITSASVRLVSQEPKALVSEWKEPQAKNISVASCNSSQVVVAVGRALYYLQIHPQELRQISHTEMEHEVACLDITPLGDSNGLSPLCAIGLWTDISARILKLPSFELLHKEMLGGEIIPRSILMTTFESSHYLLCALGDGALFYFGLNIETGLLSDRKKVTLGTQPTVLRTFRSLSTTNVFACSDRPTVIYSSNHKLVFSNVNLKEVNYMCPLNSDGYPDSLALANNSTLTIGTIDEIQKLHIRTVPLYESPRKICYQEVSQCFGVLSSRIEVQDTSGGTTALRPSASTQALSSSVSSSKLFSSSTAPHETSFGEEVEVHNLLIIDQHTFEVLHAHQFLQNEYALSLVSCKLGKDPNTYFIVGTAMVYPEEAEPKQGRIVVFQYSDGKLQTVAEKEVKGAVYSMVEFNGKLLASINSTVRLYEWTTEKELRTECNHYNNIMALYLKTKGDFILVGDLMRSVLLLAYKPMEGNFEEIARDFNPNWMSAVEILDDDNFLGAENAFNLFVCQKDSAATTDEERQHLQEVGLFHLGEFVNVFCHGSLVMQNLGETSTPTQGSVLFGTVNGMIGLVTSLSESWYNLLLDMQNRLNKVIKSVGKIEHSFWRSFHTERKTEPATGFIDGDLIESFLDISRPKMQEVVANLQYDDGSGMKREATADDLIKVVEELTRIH

As usually defined, the IC50 is the concentration that inhibits the measured activity by half. At CRBN/DDB1, `Cn1ccc2c(CN3CCC(S(C)(=O)=O)CC3)cc(-c3ccc4c(c3)CN(C3CCC(=O)NC3=O)C4=O)nc21` (stereo not drawn) [Example 300, 3-(5-(1-methyl-4-((4-(methylsulfonyl)piperidin-1-yl)methyl)-1H-pyrrolo[2,3-b]pyridin-6-yl)-1-oxoisoindolin-2-yl) piperidine-2,6-dione] returned an IC50 of 1000 to 5000 nM. In addition, at IKZF2, the DC50 fell in the range of 10 to 100 nM and the Dmax was in the range of 60 to 80%. Besides, on IKZF1, the DC50 is over 10000 nM and the Dmax was under 20%.
Turning to `O=C1CCC(N2Cc3cc(-c4cc(CN5CCCC5)c5cn(C6CCC6)nc5n4)ccc3C2=O)C(=O)N1` (stereo not drawn) [Example 316, 3-(5-(2-cyclobutyl-4-(pyrrolidin-1-ylmethyl)-2H-pyrazolo[3,4-b]pyridin-6-yl)-1-oxoisoindolin-2-yl) piperidine-2,6-dione], at CRBN/DDB1, the IC50 was in the range of 100 to 500 nM. On IKZF2, the DC50 fell in the range of 1 to 10 nM and the Dmax is over 80%. For the same compound, on IKZF1, the DC50 was in the range of 10 to 100 nM and the Dmax was in the range of 20 to 40%.
For `O=C1CCC(N2Cc3cc(-c4cc(CN5CCCC5)c5c(ccn5CCO)n4)ccc3C2=O)C(=O)N1` (stereo not drawn) [Example 175, 3-(5-(1-(2-hydroxyethyl)-7-(pyrrolidin-1-ylmethyl)-1H-pyrrolo[3,2-b]pyridin-5-yl)-1-oxoisoindolin-2-yl) piperidine-2,6-dione] the same measures were 1000 to 5000 nM, 10 to 100 nM, 60 to 80%, over 10000 nM and under 20%.
As to `Cn1ccc2c(CN3CCc4ccccc4C3)cc(-c3ccc4c(c3)CN(C3CCC(=O)NC3=O)C4=O)nc21` (stereo not drawn) [Example 65, 3-(5-(4-((3,4-dihydroisoquinolin-2 (1H)-yl)methyl)-1-methyl-1H-pyrrolo[2,3-b]pyridin-6-yl)-1-oxoisoindolin-2-yl) piperidine-2,6-dione], the IC50 at CRBN/DDB1 fell in the range of 100 to 500 nM. Also, on IKZF2, the DC50 fell in the range of 1 to 10 nM and the Dmax is over 80%. Further, on IKZF1, the DC50 is over 10000 nM and the Dmax is 20 to 40%.
Compound `COC1CN(Cc2cc(-c3ccc4c(c3)CN(C3CCC(=O)NC3=O)C4=O)nc3c2ccn3C)C1` (stereo not drawn) [Example 85, 3-(5-(4-((3-methoxyazetidin-1-yl)methyl)-1-methyl-1H-pyrrolo[2,3-b]pyridin-6-yl)-1-oxoisoindolin-2-yl) piperidine-2,6-dione] returned an IC50 on CRBN/DDB1 of 100 to 500 nM. At IKZF2, the DC50 lay in the range of 1 to 10 nM and the Dmax is over 80%. In addition, at IKZF1, the DC50 was in the range of 1 to 10 nM and the Dmax lay within 20 to 40%.
Turning to `O=C1CCC(N2Cc3c(ccc(-c4cc(CN5CCCC5)c5cc[nH]c5n4)c3F)C2=O)C(=O)N1` (stereo not drawn) [Example 126, 3-(4-fluoro-1-oxo-5-(4-(pyrrolidin-1-ylmethyl)-1H-pyrrolo[2,3-b]pyridin-6-yl)isoindolin-2-yl) piperidine-2,6-dione], the IC50 at CRBN/DDB1 lay in the range of 100 to 500 nM. Also, on IKZF2, the DC50 is under 1 nM and the Dmax was over 80%. At IKZF1, the DC50 is 1 to 10 nM and the Dmax lay within 40 to 60%.
The compound `Cn1ccc2c(CN3CCS(=O)(=O)CC3)cc(-c3ccc4c(c3)CN(C3CCC(=O)NC3=O)C4=O)nc21` (stereo not drawn) [Example 68, 3-(5-(4-((1,1-dioxidothiomorpholino)methyl)-1-methyl-1H-pyrrolo[2,3-b]pyridin-6-yl)-1-oxoisoindolin-2-yl) piperidine-2,6-dione] gave an IC50 at CRBN/DDB1 of 1000 to 5000 nM. The DC50 at IKZF2 was 100 to 1000 nM; on IKZF1 it was over 10000 nM. In addition, the Dmax is 20 to 40% at IKZF2 and under 20% on IKZF1.
For `Cn1ccc2c(CN3CCSCC3)cc(-c3ccc4c(c3)CN(C3CCC(=O)NC3=O)C4=O)nc21` (stereo not drawn) [Example 62, 3-(5-(1-methyl-4-(thiomorpholinomethyl)-1H-pyrrolo[2,3-b]pyridin-6-yl)-1-oxoisoindolin-2-yl) piperidine-2,6-dione] the same measures were 100 to 500 nM, 1 to 10 nM, over 10000 nM, over 80% and under 20%.
As for `Cn1ccc2c(CN3CC4(CCOCC4)C3)cc(-c3ccc4c(c3)CN(C3CCC(=O)NC3=O)C4=O)nc21` (stereo not drawn) [Example 100, 3-(5-(4-((7-oxa-2-azaspiro[3.5]nonan-2-yl)methyl)-1-methyl-1H-pyrrolo[2,3-b]pyridin-6-yl)-1-oxoisoindolin-2-yl) piperidine-2,6-dione], on CRBN/DDB1, the IC50 was 100 to 500 nM. The results for the DC50 on IKZF2 and on IKZF1 were under 1 nM and 10 to 100 nM, respectively. Also, the Dmax on IKZF2 was over 80%; on IKZF1, 20 to 40%.
For `CC(C)n1ccc2nc(-c3ccc4c(c3)CN(C3CCC(=O)NC3=O)C4=O)cc(CN3CCCC3)c21` (stereo not drawn) [Example 172, 3-(5-(1-isopropyl-7-(pyrrolidin-1-ylmethyl)-1H-pyrrolo[3,2-b]pyridin-5-yl)-1-oxoisoindolin-2-yl) piperidine-2,6-dione] the same measures were 1000 to 5000 nM, 10 to 100 nM, 100 to 1000 nM, 60 to 80% and 20 to 40%.
As to `Cc1nc2nc(-c3ccc4c(c3)CN(C3CCC(=O)NC3=O)C4=O)cc(CN3CCCC3)c2o1` (stereo not drawn) [Example 194, 3-(5-(2-methyl-7-(pyrrolidin-1-ylmethyl)oxazolo[4,5-b]pyridin-5-yl)-1-oxoisoindolin-2-yl) piperidine-2,6-dione], the IC50 on CRBN/DDB1 was 1000 to 5000 nM. In addition, the DC50 on IKZF2 was 1 to 10 nM; on IKZF1, over 10000 nM. Further, the Dmax on IKZF2 is over 80%; at IKZF1 it was under 20%.
The matching figures for `O=C1CCC(N2Cc3cc(-c4cc(CN5CCC(F)C5)c5cc[nH]c5n4)ccc3C2=O)C(=O)N1` (stereo not drawn) [Example 127, 3-(5-(4-((3-fluoropyrrolidin-1-yl)methyl)-1H-pyrrolo[2,3-b]pyridin-6-yl)-1-oxoisoindolin-2-yl) piperidine-2,6-dione]: 100 to 500 nM, 1 to 10 nM, 100 to 1000 nM, over 80% and 20 to 40%.
For `Cn1ccc2c(Cn3cnc4ccccc43)cc(-c3ccc4c(c3)CN(C3CCC(=O)NC3=O)C4=O)nc21` (stereo not drawn) [Example 97, 3-(5-(4-((1H-benzo[d]imidazol-1-yl)methyl)-1-methyl-1H-pyrrolo[2,3-b]pyridin-6-yl)-1-oxoisoindolin-2-yl) piperidine-2,6-dione] the same measures were under 100 nM, 10 to 100 nM, over 10000 nM, 40 to 60% and under 20%.
On to `CCn1nc(N)c2nc(-c3ccc4c(c3)CN(C3CCC(=O)NC3=O)C4=O)cc(CN3CCCC3)c21` (stereo not drawn) [Example 178, 3-(5-(3-amino-1-ethyl-7-(pyrrolidin-1-ylmethyl)-1H-pyrazolo[4,3-b]pyridin-5-yl)-1-oxoisoindolin-2-yl) piperidine-2,6-dione], for which the IC50 on CRBN/DDB1 lay in the range of 500 to 1000 nM. Also, at IKZF2, the DC50 lay within 1 to 10 nM and the Dmax lay within 60 to 80%. Further, on IKZF1, the DC50 was 100 to 1000 nM and the Dmax was 20 to 40%.
For `COCC1CCN(Cc2cc(-c3ccc4c(c3)CN(C3CCC(=O)NC3=O)C4=O)nc3c2ccn3C)C1` (stereo not drawn) [Example 109, 3-(5-(4-((3-(methoxymethyl)pyrrolidin-1-yl)methyl)-1-methyl-1H-pyrrolo[2,3-b]pyridin-6-yl)-1-oxoisoindolin-2-yl) piperidine-2,6-dione] the same measures were 100 to 500 nM, under 1 nM, over 80%, 1 to 10 nM and 20 to 40%.
